Assay results reported in patent US9174977B2, “2-azabicyclo[4.1.0]heptane derivatives as orexin receptor antagonists for the treatment of certain disorders” (Rottapharm Biotech S.r.l., priority 2012, dated 2015).

Assays:
human OX2 receptors = biological target: T1, human OX2 receptors (Homo sapiens, UniProt O43614); assay: antagonistic activity against human OX2 receptor, calcium fluorimetry (Fluo-4NW) in transfected HEK-293 cells; assay type: cell-based; details: HEK-293 cells transfected with human recombinant OX2, activated with orexin-B 10 nM; pKb = co-logarithm of apparent dissociation constant (modified Cheng Prusoff)
T1 construct: expressed in transfected cells; host or cells: HEK-293 cells
T1 sequence (O43614 1-444): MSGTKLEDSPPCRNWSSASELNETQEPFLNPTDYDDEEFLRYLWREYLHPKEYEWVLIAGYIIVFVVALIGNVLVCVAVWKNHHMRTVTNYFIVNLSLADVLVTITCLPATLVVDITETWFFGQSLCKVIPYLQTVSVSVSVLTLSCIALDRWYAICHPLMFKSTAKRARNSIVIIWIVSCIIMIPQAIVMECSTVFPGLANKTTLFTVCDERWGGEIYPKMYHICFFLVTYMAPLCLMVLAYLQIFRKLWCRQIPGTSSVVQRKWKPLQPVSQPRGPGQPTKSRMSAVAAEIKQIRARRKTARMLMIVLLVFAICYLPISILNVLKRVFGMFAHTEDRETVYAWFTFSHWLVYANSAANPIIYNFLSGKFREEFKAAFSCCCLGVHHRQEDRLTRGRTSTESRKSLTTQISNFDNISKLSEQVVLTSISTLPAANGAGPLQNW
Experimental: (§1) In a typical experiment, the antagonistic activity against human OX1 and OX2 receptors is determined by using CHO e HEK-293 cells transfected with human recombinant OX1 and OX2 receptors respectively, seeded at density of 2 and 3×10^4 cells/well respectively in a 96 fluorimetry well plate. Thus the plate was loaded with the calcium dye (Fluo-4NW/probenecid in HBSS, Hepes 20 mM, pH 7,4; Invitrogen) at 37° C. for 60 min. Afterward the temperature was equilibrated at 22° C. for 15 min and the [Ca2+]i measured directly on the plate by using a fluorescent plate reader (CellLux Perkin Elmer).
(§2) Invention compounds were dissolved in DMSO, diluted in HBSS (DMSO, 0.3% final) and added to the wells. After 5 min CHO cells were activated with orexin-A, 3 nM while HEK-293 cells were activated with orexin-B, 10 nM.
(§3) The compounds, dissolved in DMSO and diluted in the medium (DMSO, 0.3% final), have been analysed in the 1 nM-1 μM concentration range (every concentration in duplicate). The antagonistic activity has been expressed as pKb (co-logarithm of the apparent dissociation constant calculated by using the modified Cheng Prusoff equation).
(§4) The results are expressed as percent of control specific […] response ((measured specific response/control specific agonist response)×100) obtained in the presence of the test compounds.
(§5) The IC50 values (concentration causing a half-maximal inhibition of the control specific agonist response) were determinated by non-linear regression analysis of the concentration curves generated with mean replicate values using hill equation curve fitting. The IC50 values are obtained by the arithmetical mean of at least two experiments.

human OX1 receptors = biological target: T2, human OX1 receptors (Homo sapiens, UniProt O43613); assay: antagonistic activity against human OX1 receptor, calcium fluorimetry (Fluo-4NW) in transfected CHO cells; assay type: cell-based; details: CHO cells transfected with human recombinant OX1, activated with orexin-A 3 nM; pKb = co-logarithm of apparent dissociation constant (modified Cheng Prusoff)
T2 construct: expressed in transfected cells; host or cells: CHO cells
T2 sequence (O43613 1-425): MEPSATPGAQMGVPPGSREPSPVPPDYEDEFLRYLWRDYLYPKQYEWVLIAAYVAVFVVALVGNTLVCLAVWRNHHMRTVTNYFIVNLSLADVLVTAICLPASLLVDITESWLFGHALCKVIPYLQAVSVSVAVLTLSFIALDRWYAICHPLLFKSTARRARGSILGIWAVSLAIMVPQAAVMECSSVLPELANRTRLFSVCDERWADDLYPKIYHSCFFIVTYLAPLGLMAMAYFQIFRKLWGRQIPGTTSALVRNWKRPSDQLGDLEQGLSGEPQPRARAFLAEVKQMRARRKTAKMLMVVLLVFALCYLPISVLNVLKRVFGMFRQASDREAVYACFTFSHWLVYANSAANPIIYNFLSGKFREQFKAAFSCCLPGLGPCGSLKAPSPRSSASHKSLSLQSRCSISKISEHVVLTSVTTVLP
Experimental: as §1, §2, §3, §4, §5

| Compound | Kb (human OX2 receptors) | Kb (human OX1 receptors) |
| --- | --- | --- |
| Cc1nc(C(=O)N2[C@H](CNc3ccc(C(F)(F)F)cn3)CC[C@H]3C[C@H]32)c(-c2ccccc2)s1 [Compound 2a, (2-methyl-5-phenylthiazol-4-yl)((1R,3S,6S)-3-(((5-(trifluoromethyl)pyridin-2-yl)amino)methyl)-2-azabicyclo[4.1.0]heptan-2-yl)methanone] | 2.51 nM | 2.51 nM |
| Cc1ccc(-c2ncccn2)c(C(=O)N2[C@H](COc3ccc(C(F)(F)F)cn3)CC[C@H]3C[C@H]32)c1 [Compound 3g, (5-methyl-2-(pyrimidin-2-yl)phenyl)((1R,3S,6S)-3-(((5-(trifluoromethyl)pyridin-2-yl)oxy)methyl)-2-azabicyclo[4.1.0]heptan-2-yl)methanone] | 12.6 nM | 1.58 nM |
| O=C(c1cc(Cl)ccc1-c1ncccn1)N1[C@H](CNc2ccc(Cl)cn2)CC[C@@H]2C[C@@H]21 [Compound 4e, (5-chloro-2-(pyrimidin-2-yl)phenyl)((1S,3S,6R)-3-(((5-chloropyridin-2-yl)amino)methyl)-2-azabicyclo[4.1.0]heptan-2-yl)methanone] |  | 3.98 nM |
| N#Cc1ccc(-c2ncccn2)c(C(=O)N2[C@H](CNc3ccc(Cl)cn3)CC[C@H]3C[C@H]32)c1 [Compound 1i, 3-((1R,3S,6S)-3-(((5-chloropyridin-2-yl)amino)methyl)-2-azabicyclo[4.1.0]heptane-2-carbonyl)-4-(pyrimidin-2-yl)benzonitrile] | 20 nM | 1.58 nM |
| O=C(c1cc(Cl)ccc1-c1ncccn1)N1[C@H](CNc2ccc(C(F)(F)F)cn2)CC[C@@H]2C[C@@H]21 [Compound 4b, (5-chloro-2-(pyrimidin-2-yl)phenyl)((1S,3S,6R)-3-(((5-(trifluoromethyl)pyridin-2-yl)amino)methyl)-2-azabicyclo[4.1.0]heptan-2-yl)methanone] | 200 nM | 5.01 nM |
| Cc1ccc(-c2ncccn2)c(C(=O)N2[C@H](COc3ccc(Cl)cn3)CC[C@H]3C[C@H]32)c1 [Compound 3f, ((1R,3S,6S)-3-(((5-chloropyridin-2-yl)oxy)methyl)-2-azabicyclo[4.1.0]heptan-2-yl)(5-methyl-2-(pyrimidin-2-yl)phenyl)methanone] | 50.1 nM | 1 nM |
| Cc1ccc(-c2ncccn2)c(C(=O)N2[C@H](CNc3cc(C(F)(F)F)ccn3)CC[C@@H]3C[C@@H]32)c1 [Compound 4f, (5-methyl-2-(pyrimidin-2-yl)phenyl)((1S,3S,6R)-3-(((4-(trifluoromethyl)pyridin-2-yl)amino)methyl)-2-azabicyclo[4.1.0]heptan-2-yl)methanone] | 39.8 nM | 6.31 nM |
| O=C(c1cc(Cl)ccc1-c1ncccn1)N1[C@H](COc2ccc(F)cn2)CC[C@H]2C[C@H]21 [Compound 3c, (5-chloro-2-(pyrimidin-2-yl)phenyl)((1R,3S,6S)-3-(((5-fluoropyridin-2-yl)oxy)methyl)-2-azabicyclo[4.1.0]heptan-2-yl)methanone] | 63.1 nM | 12.6 nM |
| Cc1ccc(-c2ncccn2)c(C(=O)N2[C@H](CNc3nccc(C(F)(F)F)n3)CC[C@@H]3C[C@@H]32)c1 [Compound 4i, (5-methyl-2-(pyrimidin-2-yl)phenyl)((1S,3S,6R)-3-(((4-(trifluoromethyl)pyrimidin-2-yl)amino)methyl)-2-azabicyclo[4.1.0]heptan-2-yl)methanone] |  | 25.1 nM |
| N#Cc1ccc(-c2ncccn2)c(C(=O)N2[C@H](CNc3ccc(C(F)(F)F)cn3)CC[C@H]3C[C@H]32)c1 [Compound 1b, 4-(pyrimidin-2-yl)-3-((1R,3S,6S)-3-(((5-(trifluoromethyl)pyridin-2-yl)amino)methyl)-2-azabicyclo[4.1.0]heptane-2-carbonyl)benzonitrile] | 10 nM | 5.01 nM |
| O=C(c1cc(Cl)ccc1-c1ncccn1)N1[C@H](COc2ccc(C(F)(F)F)cn2)CC[C@H]2C[C@H]21 [Compound 3d, (5-chloro-2-(pyrimidin-2-yl)phenyl)((1R,3S,6S)-3-(((5-(trifluoromethyl)pyridin-2-yl)oxy)methyl)-2-azabicyclo[4.1.0]heptan-2-yl)methanone] | 20 nM | 1.26 nM |
| Cc1nc(C(=O)N2[C@H](CNc3ccc(Cl)cn3)CC[C@H]3C[C@H]32)c(-c2ccccc2)s1 [Compound 2b, ((1R,3S,6S)-3-(((5-chloropyridin-2-yl)amino)methyl)-2-azabicyclo[4.1.0]heptan-2-yl)(2-methyl-5-phenylthiazol-4-yl)methanone] | 15.8 nM | 1.26 nM |
| O=C(c1cc(Cl)ccc1-c1ncccn1)N1[C@H](CNc2cc(C(F)(F)F)ccn2)CC[C@@H]2C[C@@H]21 [Compound 4d, (5-chloro-2-(pyrimidin-2-yl)phenyl)((1S,3S,6R)-3-(((4-(trifluoromethyl)pyridin-2-yl)amino)methyl)-2-azabicyclo[4.1.0]heptan-2-yl)methanone] | 50.1 nM | 7.94 nM |
| O=C(c1cc(Cl)ccc1-c1ncccn1)N1[C@H](CNc2cc(C(F)(F)F)ccn2)CC[C@H]2C[C@H]21 [Compound 1a, (5-chloro-2-(pyrimidin-2-yl)phenyl)((1R,3S,6S)-3-(((4-(trifluoromethyl)pyridin-2-yl)amino)methyl)-2-azabicyclo[4.1.0]heptan-2-yl)methanone] | 3.98 nM | 1.58 nM |
| O=C(c1cc(Cl)ccc1-c1ncccn1)N1[C@H](COc2ccc(Cl)cn2)CC[C@H]2C[C@H]21 [Compound 3e, (5-chloro-2-(pyrimidin-2-yl)phenyl)((1R,3S,6S)-3-(((5-chloropyridin-2-yl)oxy)methyl)-2-azabicyclo[4.1.0]heptan-2-yl)methanone] | 15.8 nM | 1 nM |
| Cc1ccc(-c2ncccn2)c(C(=O)N2[C@H](CNc3ccc(C(F)(F)F)cn3)CC[C@@H]3C[C@@H]32)c1 [Compound 4a, (5-methyl-2-(pyrimidin-2-yl)phenyl)((1S,3S,6R)-3-(((5-(trifluoromethyl)pyridin-2-yl)amino)methyl)-2-azabicyclo[4.1.0]heptan-2-yl)methanone] | 39.8 nM | 2.51 nM |
| O=C(c1cc(Cl)ccc1-c1ncccn1)N1[C@H](CNc2ccc(C(F)(F)F)cn2)CC[C@H]2C[C@H]21 [Compound 1e, (5-chloro-2-(pyrimidin-2-yl)phenyl)((1R,3S,6S)-3-(((5-(trifluoromethyl)pyridin-2-yl)amino)methyl)-2-azabicyclo[4.1.0]heptan-2-yl)methanone] | 12.6 nM | 2.51 nM |
| O=C(c1cc(Cl)ccc1-c1ncccn1)N1[C@H](CNc2nccc(C(F)(F)F)n2)CC[C@@H]2C[C@@H]21 [Compound 4h, (5-chloro-2-(pyrimidin-2-yl)phenyl)((1S,3S,6R)-3-(((4-(trifluoromethyl)pyrimidin-2-yl)amino)methyl)-2-azabicyclo[4.1.0]heptan-2-yl)methanone] |  | 31.6 nM |
| N#Cc1ccc(-c2ncccn2)c(C(=O)N2[C@H](COc3ccc(F)cn3)CC[C@H]3C[C@H]32)c1 [Compound 3b, 3-((1R,3S,6S)-3-(((5-fluoropyridin-2-yl)oxy)methyl)-2-azabicyclo[4.1.0]heptane-2-carbonyl)-4-(pyrimidin-2-yl)benzonitrile] |  | 79.4 nM |
| Cc1ccc(-c2ncccn2)c(C(=O)N2[C@H](CNc3ccc(Cl)cn3)CC[C@@H]3C[C@@H]32)c1 [Compound 4g, ((1S,3S,6R)-3-(((5-chloropyridin-2-yl)amino)methyl)-2-azabicyclo[4.1.0]heptan-2-yl)(5-methyl-2-(pyrimidin-2-yl)phenyl)methanone] |  | 1.58 nM |
